Structures can show the parent of a compound that is named as a salt. Where two headings read alike, the source gives them in different places.
Columns and labels:
EBOV minigenome activity [1] = experiment: microbe, parasite or virus in culture; format: cell-based, Ebola virus
EBOV minigenome activity [2] = experiment: cells; settings: Zaire ebolavirus, HEK-293T, 24 h
EBOV minigenome activity [3] = tested on: EBOV minigenome activity
in vitro = settings: human
EBOV-GFP = format: cell-based, Ebola virus
EBOV minigenome activity [4] = format: cell-based, Ebola virus

Compound	IC50 (EBOV minigenome activity [2]) [nM]	SI (CC50/IC50) (EBOV minigenome activity [3])	CC50 (in vitro) [nM]	% inhibition in screen (EBOV minigenome activity [1]) [%]	further results
O=c1cnn([C@@H]2O[C@H](CO)[C@@H](O)[C@H]2O)c(=O)[nH]1 [6-Azauridine]	–	–	–	–	inhibition at 7 µM (EBOV minigenome activity [1]; Zaire ebolavirus, 24 h, read-out: inhibition of minigenome activity (positive control)): ~70%
CC(=O)Oc1c2c(c(CC=C(C)C)c3c1C(=O)C1=C[C@@H]4CC5C(C)(C)OC(C/C=C(\C)C(=O)O)(C4=O)[C@@]15O3)OC(C)(CCC=C(C)C)C=C2 (stereo partly drawn) [acetyl isogambogic acid]	2940	0.983	2880	99.0	–
Nc1ncn([C@@H]2O[C@H](CO)[C@@H](O)[C@H]2O)c(=O)n1 [azacitidine]	4010	>12.466	> 50000	76.9	–
C[C@@]12C(=O)OC(=O)[C@]1(C)[C@H]1CC[C@@H]2O1 [cantharidin]	11300	>4.415	> 50000	87.3	IC50 (EBOV minigenome activity [3]): 11300 nM
CO[C@H]1C=C[C@@]23c4cc5c(cc4CN(C[C@@H]2O)[C@H]3C1)OCO5 [crinamine]	–	>13.196	–	91.5	CC50 (HEK293T cells): > 50000 nM; IC50 (EBOV minigenome activity [3]): 3790 nM
C[C@@H]1C[C@@H]([C@H](O)CC2CC(=O)NC(=O)C2)C(=O)[C@@H](C)C1 [cycloheximide]	608	–	> 50000	97.9	cytotoxicity (Vero E6 cells): cytotoxic at higher concentrations; reduction of EBOV replication (EBOV-GFP) (EBOV-GFP): 96%
C[C@H]1O[C@@H](O[C@H]2[C@@H](O)C[C@H](O[C@H]3[C@@H](O)C[C@H](O[C@H]4CC[C@@]5(C)[C@H](CC[C@@H]6[C@@H]5CC[C@]5(C)[C@@H](C7=CC(=O)OC7)CC[C@]65O)C4)O[C@@H]3C)O[C@@H]2C)C[C@H](O)[C@@H]1O [digitoxin]	50	0.62	31	92.5	–
CN(C)CCOC(c1ccccc1)c1ccccc1.Cn1c(=O)c2[nH]c(Cl)nc2n(C)c1=O [dramamine]	–	–	–	57.8	CC50 (HEK293T cells): > 50000 nM; IC50 (EBOV minigenome activity [3]): > 50000 nM
CC[C@H]1CN2CCc3cc(OC)c(OC)cc3[C@@H]2C[C@@H]1C[C@H]1NCCc2cc(OC)c(OC)cc21 [emetine]	1470	–	> 50000	98.3	cytotoxicity (Vero E6 cells): cytotoxic at higher concentrations; reduction of EBOV replication (EBOV-GFP) (EBOV-GFP): 99%
O=c1[nH]cc(F)c(=O)[nH]1 [fluorouracil]	> 50000	–	> 50000	–	–
CC(C)=CCC[C@]1(C)C=Cc2c(O)c3c(c(CC=C(C)C)c2O1)O[C@]12C(=C[C@@H]4CC1C(C)(C)O[C@@]2(C/C=C(/C)C(N)=O)C4=O)C3=O [gambogic amide]	1010	0.45	454	100.0	–
CC(=O)O[C@@H]1C[C@H]2C(C)(C)C(=O)C=C[C@]2(C)[C@H]2CC[C@@]3(C)[C@H](c4ccoc4)OC(=O)[C@H]4O[C@]43[C@@]21C [gedunin]	803	6.829	5480	72.9	cell death (cytotoxicity) (Vero E6 cells): little cell death; reduction of virus replication (EBOV-GFP) (EBOV-GFP): 98%
Cc1ccc(C)c(OCCCC(C)(C)C(=O)O)c1 [gemfobrozil]	–	–	–	62.1	CC50 (HEK293T cells): > 50000 nM; IC50 (EBOV minigenome activity [3]): > 50000 nM
CC(=O)O[C@H]1C[C@H](O[C@H]2[C@@H](O)C[C@H](O[C@H]3[C@@H](O)C[C@H](O[C@H]4CC[C@@]5(C)[C@H](CC[C@@H]6[C@@H]5C[C@@H](O)[C@]5(C)[C@@H](C7=CC(=O)OC7)CC[C@]65O)C4)O[C@@H]3C)O[C@@H]2C)O[C@H](C)[C@H]1O[C@@H]1O[C@H](CO)[C@@H](O)[C@H](O)[C@H]1O [lanatoside C]	255	0.694	177	100.0	–
CN(Cc1cnc2nc(N)nc(N)c2n1)c1ccc(C(=O)N[C@@H](CCC(=O)O)C(=O)O)cc1 [methotrexate]	> 50000	–	> 50000	67.1	–
COc1c(C)c2c(c(O)c1C/C=C(\C)CCC(=O)O)C(=O)OC2 [mycophenolic acid]	316	–	> 50000	90.5	cell death (cytotoxicity) (Vero E6 cells): little cell death; effect of guanosine addition on inhibition of minigenome activity (EBOV minigenome activity [4]): rescued minigenome activity at all concentrations; reduction of virus replication (EBOV-GFP) (EBOV-GFP): 96%
CC1=CC(=O)c2c(O)cccc2C1=O [plumbagin]	919	0.823	756	98.3	–
COc1ccc(C[C@H](N)C(=O)N[C@H]2[C@@H](O)[C@H](n3cnc4c(N(C)C)ncnc43)O[C@@H]2CO)cc1 [puromycin hydrochloride]	889	4.043	3590	99.7	–
C[C@]12CC[C@H]3[C@@H](CC[C@]4(O)C[C@@H](O)CC[C@]34C=O)[C@@]1(O)CC[C@@H]2C1=CC(=O)OC1 [strophanthidin]	1160	0.423	491	100.0	–
Nc1ncnc2c1ncn2[C@@H]1O[C@H](CO)[C@@H](O)[C@@H]1O [vidarabine]	> 50000	–	> 50000	56.1	–
